Laboratory results published in patent US6955891B2 (priority 2002, dated 2005).

Experiments:
Lethal factor = Lethal factor (Bacillus anthracis, UniProt P15917); conditions: cited from earlier work
[1] = target: Bacillus anthracis lethal factor (Bacillus anthracis, UniProt P15917)
Sequence of Bacillus anthracis lethal factor (P15917 34-809 limits assumed): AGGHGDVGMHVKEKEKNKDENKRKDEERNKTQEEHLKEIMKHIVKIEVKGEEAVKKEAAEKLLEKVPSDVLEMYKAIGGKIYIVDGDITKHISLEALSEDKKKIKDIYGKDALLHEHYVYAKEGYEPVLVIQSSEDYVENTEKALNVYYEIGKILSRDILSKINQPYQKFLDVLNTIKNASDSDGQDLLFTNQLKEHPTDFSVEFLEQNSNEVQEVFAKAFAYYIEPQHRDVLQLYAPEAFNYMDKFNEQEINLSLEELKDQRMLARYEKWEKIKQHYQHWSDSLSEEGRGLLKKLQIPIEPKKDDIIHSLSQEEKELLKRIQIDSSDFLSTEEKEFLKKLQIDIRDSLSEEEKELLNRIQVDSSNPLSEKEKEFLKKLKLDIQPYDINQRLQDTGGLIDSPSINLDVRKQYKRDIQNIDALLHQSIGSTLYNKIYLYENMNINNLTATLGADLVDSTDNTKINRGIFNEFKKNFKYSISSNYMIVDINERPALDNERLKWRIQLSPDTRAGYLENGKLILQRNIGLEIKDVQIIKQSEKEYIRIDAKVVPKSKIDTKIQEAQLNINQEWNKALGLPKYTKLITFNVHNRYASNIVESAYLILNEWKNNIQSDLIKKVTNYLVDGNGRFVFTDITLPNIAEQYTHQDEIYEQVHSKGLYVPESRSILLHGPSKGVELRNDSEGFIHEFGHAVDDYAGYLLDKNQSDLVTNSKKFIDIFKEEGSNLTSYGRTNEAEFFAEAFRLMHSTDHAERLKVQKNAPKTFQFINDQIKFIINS

Sequence of Lethal factor (P15917 34-809 limits assumed): as above

| Compound | effect on in vitro cleavage of synthetic peptides by lethal factor (Lethal factor) | signal/background (S/B) at 100% cleavage [1] |
| --- | --- | --- |
| c1cnc2c(c1)ccc1cccnc12 [1,10-phenanthroline] | inhibited |  |
| (Cou)NleKKKKVLP IQLNAATDK(Q-35)GG-NH2 [(Cou)Consensus(K(QSY-35)GG)-NH2] |  | largest S/B |
